Results on 1 compound are retold here after ChEMBL document CHEMBL3832541, “DailyMed|setid=33ddfdb1-b4bc-464d-a186-49c4b156279f | DOXORUBICIN HYDROCHLORIDE- doxorubicin hydrochloride injection, solution|Actavis Pharma, Inc”.

Assay type in all cases: ADME, organism-based
The nature of data set [1]: (§1) Evaluation of pharmacokinetic parameters for Doxorubicin hydrochloride following single intravenous administration of Doxorubicin hydrochloride solution to patients with various types of tumors. As to conditions: human, dosed compound id 8, dosed compound name DOXORUBICIN HYDROCHLORIDE, regimen Single dose, tissue Plasma, read-out: Protein binding (converted).
Data set [2] deals with Homo sapiens. The description is as §1. As to conditions: in vivo, iv, dosed compound id 8, dosed compound name DOXORUBICIN HYDROCHLORIDE, regimen Single dose, tissue Plasma.
The subject of data set [3] is Homo sapiens. Kind of data set: Evaluation of pharmacokinetic parameters for Doxorubicin hydrochloride following multiple intravenous administration of Doxorubicin hydrochloride solution to children, adolescents and adults subjects. As to conditions: in vivo, dose 10 to 75 mg/m2, dosed compound id 8, dosed compound name DOXORUBICIN HYDROCHLORIDE, gender male and female, regimen Multiple dose, tissue Plasma.

Values joined by “and” are separate entries in the source; they are usually repeats but may differ in a detail not shown here. Identical values can stand only once.

Consider `COc1cccc2c1C(=O)c1c(O)c3c(c(O)c1C2=O)C[C@@](O)(C(=O)CO)C[C@@H]3O[C@H]1C[C@H](N)[C@H](O)[C@H](C)O1.Cl` [DOXORUBICIN HYDROCHLORIDE], for which the fraction unbound in data set [1] is 0.25. For the same compound, the CL in data set [2] (gender female) is 433 mL/min/m2; in data set [2] (gender male) it was 1088 mL/min/m2; in data set [3], 1443 mL/min/m2 and 1540 mL/min/m2 and 813 mL/min/m2. Moreover, the t1/2-terminal in data set [2] (gender female) is 35 h; in data set [2] (gender male), 54 h; in data set [2] it was 20 to 48 h. The t1/2-distribution in data set [2] worked out at 5 min.
